# Experimental data taken from patent publication US6573246B1, “Modified ether glyceroglycolipids” (The Liposome Company, Inc., priority 1995, dated 2003).
# Read-outs that look alike come from different tables or passages of the source.
# Key:
# HT29 cells = assay: growth inhibition of HT29 cells in culture; assay type: cell-based; settings: read-out: Gl50 (concentration of lipid required to inhibit the growth of fifty percent of the cells in culture)
# [1] = system: MCF-7 (breast adenocarcinoma) cells; assay: growth inhibition of MCF-7 cells in culture; assay type: cell-based, human; settings: MCF7, mean ± standard deviation, read-out: Gl50 (concentration of lipid required to inhibit the growth of fifty percent of the cells in culture)
# Procedure: (§1) Human epithelial cancer cell lines were grown from frozen stocks originally obtained from the ATCC, in media commonly used for growing these cells in culture. For example, A549 cells (non-small cell lung adenocarcinoma) were cultured in Ham's F-12 medium, T84 cells (colon carcinoma) were cultured in a 1:1 mixture of F-12 and DMEM while MCF-7 (breast adenocarcinoma) and A427 (large cell lung carcinoma) cells were cultured in DMEM. The media were supplemented with 10% fetal bovine serum, penicillin (50 U/ml), streptomycin (50 micogram/ml) and fungizone (0.5 microgram/ml). OVCAR-3 cells (ovarian adenocarcinoma) were cultured in RPMI 1640 medium supplemented with 20% FBS and 10 microgram/ml insulin.
# (§2) Cells were subcultured into 24-well plates and the cell number was monitored daily. When the cells were in log phase, the media was replaced with one containing the required drug concentration, and the cells were incubated for 72 h. The increase in cell numbers relative to control wells (without any drug) was determined after the incubation. Stock solutions of the drugs ([…]) were prepared in ethanol and stored at −20 deg. C. Etherlipid solutions (30 micromolar) in the appropriate media were prepared fresh on the day of the experiment and serially diluted to give the required concentrations. The final concentration of ethanol in all wells was 0.1% (v/v).
# (§3) Gl50 values are given as the mean ± standard deviation; the Gl50 value from each experiment “n” was generated from three individual wells on two separate plates (six total wells); n=1 for compounds 3-6; n=2 for most cell lines treated with compound 2 ^an=3; ^bn=2; ^cn=6; ^dn=8.
# P388 cells = assay: growth inhibition of P388 cells in culture; assay type: cell-based, murine; settings: mean ± standard deviation, read-out: Gl50 (concentration of lipid required to inhibit the growth of fifty percent of the cells in culture)
# Procedure: (§4) The Gl50 values for edelfosine (1), 2′-deoxy-β-D-arabinopyranosyl (2), 2′-deoxy-α-D-arabinopyranosyl (3), 2-O-methyl-β-D-glucopyranosyl (4), 2′-O-methyl-β-D-mannopyranosyl (5) and α-D-mannopyransoyl (6) on A-549, MCF-7, Lewis Lung, MCF-7/Adr (adriamycin-resistant), P388, P-388/Adr, L1210 and L1210/vmdr cells were determined and are set forth below (see Table 4) as the concentration (micromolar) of lipid required to inhibit the growth of fifty percent of the cells in culture.
# as §3
# Lewis Lung cells = assay: growth inhibition of Lewis Lung cells in culture; assay type: cell-based, murine; settings: mean ± standard deviation, read-out: Gl50 (concentration of lipid required to inhibit the growth of fifty percent of the cells in culture)
# Procedure: as §4, §3
# [2] = system: A549 cells (non-small cell lung adenocarcinoma); assay: growth inhibition of A549 cells in culture; assay type: cell-based, human; settings: mean ± standard deviation, read-out: Gl50 (concentration of lipid required to inhibit the growth of fifty percent of the cells in culture)
# Procedure: as §1, §2, §3
# [3] = system: MCF-7/Adr (adriamycin-resistant) cells; assay: growth inhibition of MCF7/adr cells in culture; assay type: cell-based, human; settings: mean ± standard deviation, read-out: Gl50 (concentration of lipid required to inhibit the growth of fifty percent of the cells in culture)
# Procedure: as §4, §3
# L1210/vmdr cells = assay: growth inhibition of L1210/vmdr cells in culture; assay type: cell-based; settings: mean ± standard deviation, read-out: Gl50 (concentration of lipid required to inhibit the growth of fifty percent of the cells in culture)
# Procedure: as §4, §3
# [4] = system: OVCAR-3 cells (ovarian adenocarcinoma); assay: growth inhibition of OVCAR-3 cells in culture; assay type: cell-based, human; settings: for growth: increase in cell numbers relative to control wells (control = 100): OVCAR-3, 72 h
# Procedure: as §1, §2
# L1210 cells = assay: growth inhibition of L1210 cells in culture; assay type: cell-based; settings: mean ± standard deviation, read-out: Gl50 (concentration of lipid required to inhibit the growth of fifty percent of the cells in culture)
# Procedure: as §4, §3
# P-388/Adr cells = assay: growth inhibition of P388/adr cells in culture; assay type: cell-based, murine; settings: mean ± standard deviation, read-out: Gl50 (concentration of lipid required to inhibit the growth of fifty percent of the cells in culture)
# Procedure: as §4, §3
smiles,measurement,setting,value
"CCCCCCCCCCCCCCCCCCOCC(COP(=O)([O-])OCC[N+](C)(C)C)OC (stereo not drawn) [compound 1, edelfosine, reference compound]",IC50,"HT29 cells; Homo sapiens, HT-29, mean ± standard deviation",2.2 µM
same,IC50,[1]; Homo sapiens,9.66 µM
same,IC50,P388 cells; Mus musculus,4.33 µM
same,IC50,"Lewis Lung cells; Mus musculus, Lewis lung carcinoma",30.2 µM
same,IC50,[2]; Homo sapiens,5.05 µM
same,IC50,"[3]; Homo sapiens, NCI/ADR-RES",30.4 µM
same,IC50,L1210/vmdr cells; Mus musculus,11 µM
same,IC50,"[4]; Homo sapiens, OVCAR-3 ovarian cancer cell line, read-out: Gl50 (the source's name)",24 µM
same,growth: increase in cell numbers relative to control wells (control = 100),[4]; lipid concentration 5 μM,105.8 ± 8.5
same,growth: increase in cell numbers relative to control wells (control = 100),[4]; lipid concentration 10 μM,77.5 ± 1.0
same,growth: increase in cell numbers relative to control wells (control = 100),[4]; lipid concentration 15 μM,70.7 ± 9.9
same,growth: increase in cell numbers relative to control wells (control = 100),[4]; lipid concentration 20 μM,68.7 ± 13.6
same,growth: increase in cell numbers relative to control wells (control = 100),[4]; lipid concentration 30 μM,20.4 ± 8.1
same,IC50,L1210 cells; Mus musculus,3.32 µM
same,IC50,P-388/Adr cells; Mus musculus,6.39 µM
"CCCCCCCCCCCCCCCCOC[C@H](CO[C@H]1C[C@H](O)[C@H](O)CO1)OC [compound 2, 1-O-Hexadecyl-2-O-methyl-3-O-(2′-deoxy-β-D-arabinopyransoyl)-sn-glycerol]",IC50,HT29 cells; mean ± standard deviation,7.59 ± 0.23 µM
same,IC50,[1],6.93 ± 0.12 µM
same,IC50,P388 cells,12.7 ± 0.78 µM
same,IC50,Lewis Lung cells,11.1 ± 0.49 µM
same,IC50,[2],9.9 ± 0.99 µM
same,IC50,[3],12.8 ± 0.85 µM
same,IC50,L1210/vmdr cells,7.09 ± 0.33 µM
same,IC50,L1210 cells,7.02 ± 0.49 µM
same,IC50,P-388/Adr cells,10.2 ± 0.34 µM
